Measured values as given in article PMC8658963, “Synthesis and Evaluation of Trypanocidal Activity of Chromane-Type Compounds and Acetophenones” (Molecules, 2021).
Read-outs that look alike come from different tables or passages of the source.

What was measured:
in vitro = settings: human, Cytotoxicity (LC50)
Description: (§1) Cytotoxicity was evaluated in the human monocyte cell line U-937 (ATCC CRL-1593.2) at the exponential growth phase, adjusted at 1 × 10^5 cells/mL in complete RPMI-1640 medium (RPMI-1640 enriched with 200 mM L-glutamine, 10% inactivated fetal bovine serum (FBS) and 1% of a mixture of 10,000 IU/mL penicillin plus […] streptomycin). Then, in each well of a 96-well tissue culture plate were dispensed […] of cells plus […] of each compound (as one of six serials 1:2 dilution concentrations starting at 368 µM prepared in the same medium). Doxorubicin was included as an internal positive control under the same dilution pattern, starting at 18 µM whereas unexposed cells were used as negative controls. Afterward, cells were incubated for 72 h at 37 °C and 5% CO2. Cell viability was assayed by the MTT reduction assay according to the optical density (O.D) at 570 nm of the resulting reduction of formazan in a Varioskan Flash Multimode Reader (Thermo Scientific, Waltham, MA, USA). Nonspecific absorbance was corrected by subtracting the O.D of the blank solution that corresponded to complete RPMI-1640 medium. The assay was done in triplicate in at least two independent experiments.
(§2) The cytotoxicity was expressed as the medial lethal concentration (LC50), while the trypanocidal activity was defined as the median effective concentration (EC50) according to the percentage of inhibition of cells and parasites, respectively, as described elsewhere. Both LC50 and EC50 were calculated by the Probit analysis. […] Similarly, the trypanocidal activity was graded according to EC50 values, based on the hit criteria proposed by others into high when EC50 was lower than 10 μM, moderate when EC50 values were higher than 10 μM but lower than 50 μM and, low when EC50 was higher than 50 μM. The relation between cytotoxicity and trypanocidal activity was expressed as the index of selectivity (IS) that corresponded to the ratio when dividing the LC50 by the EC50.

[1] = tested on: human monocyte cell line U-937 (ATCC CRL-1593.2); test: Cytotoxic activity, MTT reduction assay, 72 h; settings: for Cytotoxicity level (grade): U937 cells, graded by LC50; for CC50 / Cytotoxicity (LC50): human, 72 h
Description: as §1, §2

[2] = tested on: intracellular amastigotes of T. cruzi (Tulahuen strain transfected with the β-galactosidase gene); test: Anti-trypanosomal activity, β-galactosidase readout in infected U937 macrophages, 72 h; format: cell-based, Trypanosoma cruzi; settings: for SI (index of selectivity, IS = LC50/EC50): LC50 in U937 cells divided by EC50 against T. cruzi; for Trypanocidal activity compared with the control drug BNZ / Trypanocidal activity (grade): T. cruzi intracellular amastigotes; for Trypanocidal activity compared with the control drug BNZ: result in words
Description: This activity was carried out in intracellular amastigotes of T. cruzi (Tulahuen strain transfected with the β-galactosidase gene. Briefly, metacyclic trypomastigotes were cultured at 26 °C for ten days in a modified NNN (Novy−McNeal−Nicolle) medium. U937 cells were seeded in 96-well tissue culture plates at a density of 2.5 × 10^4 cells in 100 μL of complete RPMI-1640 medium/well and exposed for 24 h to phorbol myristate acetate (1 ng/mL) to induce transformation of monocytes into macrophages. Cells were infected with trypomastigotes (5 parasites per cell) and incubated for 24 h at 37 °C, 5% CO2. Wells were washed twice with warm phosphate buffer solution (PBS) to remove noninternalized parasites, and then were added 100 μL of complete RPMI-1640 medium and 100 μL of each concentration of compound (50, 12.5, 3.125 μM). BNZ, at the same concentrations, was used as internal control for trypanocidal activity (positive control), and nontreated cells as controls for infection (negative control). After 72 h of incubation 37 °C, 5% CO2, the viability of intracellular amastigotes was determined by measuring the β-galactosidase activity. For this, 100 μM of Chlorophenol red-β-D- galactopyranoside (CPRG), and 0.1% Nonidet P-40 was added to each well and incubated for 4 h at 37 °C, […] protected from light. After that, measurement β-galactosidase activity was measured at 570 nm on a Varioskan, Thermo spectrophotometer. Nonspecific absorbance was subtracted from the measurement. Infected cells exposed to benznidazole were used as controls for anti-trypanosomal activity. Determinations were done in triplicate with at least two independent experiments.

[3] = Trypanosoma cruzi, TULAHUEN, U-937, 72 h, read-out: Trypanocidal Activity (EC50), intracellular amastigotes of T. cruzi Tulahuen in U937 macrophages, 72 h, average ± SD (SEM)
[4] = Trypanosoma cruzi, TULAHUEN, U-937, read-out: Trypanocidal activity (grade), T. cruzi intracellular amastigotes, graded by EC50
[5] = Trypanosoma cruzi, TULAHUEN, U-937, 72 h, intracellular amastigotes of T. cruzi Tulahuen in U937 macrophages, 72 h, average ± SD (SEM), read-out: Trypanocidal Activity (EC50)
[6] = Trypanosoma cruzi, TULAHUEN, U-937, T. cruzi intracellular amastigotes, graded by EC50, read-out: Trypanocidal activity (grade)
[7] = read-out: Trypanocidal Activity (EC50), intracellular amastigotes of T. cruzi Tulahuen in U937 macrophages, 72 h, average ± SD (SEM)

Structure (SMILES)	CC50 at 72 h (in vitro)	SI (index of selectivity, IS = LC50/EC50) [2]	EC50 [2, 3]	Trypanocidal activity compared with the control drug BNZ [2]	EC50 [2, 5]	other results
CC(=O)c1c(O)ccc(CC=C(C)C)c1O [Compound 16, 1-(2,6-Dihydroxy-3-(3-methylbut-2-en-1-yl)phenyl)ethan-1-one]	< 10 µM	<2	> 4 µM	–	–	Cytotoxicity level (grade) [1]: high (high when LC50 values were lower than 50 μM); CC50 [1]: 7.8 ± 3.1 µM
CC(C)=CCc1ccc2occc(=O)c2c1O [Compound 25, 5-Hydroxy-6-(3-methylbut-2-en-1-yl)-4H-chromen-4-one]	–	>5.8	17.3 ± 0.4 µM	much better trypanocidal activity than the control drug BNZ	–	Cytotoxicity (LC50) [1]: 47.1 ± 5.5 µM; EC50 [2, 4]: 10 to 50 µM
COc1cccc2c1C(=O)c1c(O)c3c(c(O)c1C2=O)C[C@@](O)(C(=O)CO)C[C@@H]3O[C@H]1C[C@H](N)[C@H](O)[C@H](C)O1 [DOX, doxorubicin, reference compound]	0.5 µM	–	–	–	–	–
CC(=O)c1cc(CC=C(C)C)c(O)c(O)c1O [Compound 18, 1-(2,3,4-Trihydroxy-5-(3-methylbut-2-en-1-yl)phenyl)ethan-1-one]	< 10 µM	–	–	–	–	Cytotoxicity level (grade) [1]: high (high when LC50 values were lower than 50 μM); CC50 [1]: 5 ± 1.7 µM
CC(=O)c1ccc(O)cc1O [Compound 5, 1-(2,4-Dihydroxyphenyl)ethan-1-one]	54 ± 0.5 µM	3.0	–	–	17.8 ± 0.8 µM	–
COCOc1cc2oc(-c3ccc(Cl)cc3)cc(=O)c2cc1CC=C(C)C [Compound 30, 2-(4-Chlorophenyl)-7-(methoxymethoxy)-6-(3-methylbut-2-en-1-yl)-4H-chromen-4-one]	27.2 ± 3.3 µM	<2	> 13.6 µM	much better trypanocidal activity than the control drug BNZ	–	–
COCOc1cc2oc(-c3ccc(OC)cc3)cc(=O)c2cc1CC=C(C)C [Compound 29, 7-(Methoxymethoxy)-2-(4-methoxyphenyl)-6-(3-methylbut-2-en-1-yl)-4H-chromen-4-one]	17 ± 0.2 µM	<2	> 9.8 µM	much better trypanocidal activity than the control drug BNZ	–	–
CC(=O)c1c(O)cccc1O [Compound 7, 1-(2,6-Dihydroxyphenyl)ethan-1-one]	10.5 ± 0.6 µM	1.5	–	much better trypanocidal activity than the control drug BNZ	< 10 µM	CC50 [1]: 15.3 ± 1.9 µM; EC50 ([2]; intracellular amastigotes of T. cruzi Tulahuen in U937 macrophages, 72 h, average ± SD (SEM), read-out: Trypanocidal Activity (EC50)): 10.5 ± 0.6 µM
CC(=O)c1c(O)cc(O)cc1O [Compound 9, 1-(2,4,6-Trihydroxyphenyl)ethan-1-one]	> 200 µM	>4.1	–	–	49.3 ± 9 µM	EC50 [2, 6]: 10 to 50 µM
CC(=O)c1c(O)cc(O)c(CC=C(C)C)c1O [Compound 17, 1-(2,4,6-Trihydroxy-3-(3-methylbut-2-en-1-yl)phenyl)ethan-1-one]	21.2 ± 6.9 µM	2.8	< 10 µM	–	–	EC50 [2, 7]: 7.5 µM
CC(C)=CCc1cc2c(=O)ccoc2cc1O [Compound 23, 7-Hydroxy-6-(3-methylbut-2-en-1-yl)-4H-chromen-4-one]	> 200 µM	>10	> 20 µM	–	–	–
CC(=O)c1cc(CC=C(C)C)c(O)cc1O [Compound 14, 1-(2,4-Dihydroxy-5-(3-methylbut-2-en-1-yl)phenyl)ethan-1-one]	34 ± 4.9 µM	<2	> 17 µM	–	–	–
COCOc1cc(O)c(C(=O)C=Cc2ccc(OC)cc2)cc1CC=C(C)C [Compound 27, 1-(2-Hydroxy-4-(methoxymethoxy)-5-(3-methylbut-2-en-1-yl)phenyl)-3-(4-methoxyphenyl)prop-2-en-1-one]	43.4 ± 7.3 µM	1.2	35.3 ± 1.1 µM	–	–	EC50 [2, 4]: 10 to 50 µM
O=c1ccoc2c(O)c(O)ccc12 [Compound 13, 7,8-Dihydroxy-4H-chromen-4-one]	43 ± 0.9 µM	0.3	–	–	154 ± 26.8 µM	Trypanocidal activity (grade) ([2]; graded by EC50): very low
CC(C)=CCc1cc2c(=O)ccoc2c(O)c1O [Compound 26, 7,8-Dihydroxy-6-(3-methylbut-2-en-1-yl)-4H-chromen-4-one]	–	4.59	< 10 µM	much better trypanocidal activity than the control drug BNZ	–	Cytotoxicity (LC50) [1]: >200 µM; EC50 [2, 7]: 10.3 µM
O=c1ccoc2cccc(O)c12 [Compound 12, 5-Hydroxy-4H-chromen-4-one]	> 100 µM	>5.0	–	much better trypanocidal activity than the control drug BNZ	19.9 ± 1.3 µM	EC50 [2, 6]: 10 to 50 µM
CC(C)=CCc1c(O)ccc2c(=O)ccoc12 [Compound 24, 7-Hydroxy-8-(3-methylbut-2-en-1-yl)-4H-chromen-4-one]	> 100 µM	>0.9	111 ± 18.5 µM	–	–	Trypanocidal activity (grade) ([2]; graded by EC50): very low
CC(=O)c1ccc(O)c(O)c1O [Compound 8, 1-(2,3,4-Trihydroxyphenyl)ethan-1-one]	> 200 µM	>10.9	–	much better trypanocidal activity than the control drug BNZ	18.3 ± 1.1 µM	EC50 [2, 6]: 10 to 50 µM
CC(=O)c1ccc(O)c(CC=C(C)C)c1O [Compound 15, 1-(2,4-Dihydroxy-3-(3-methylbut-2-en-1-yl)phenyl)ethan-1-one]	25.2 ± 4.6 µM	1.2	20.7 ± 1.1 µM	–	–	EC50 [2, 4]: 10 to 50 µM
O=c1ccoc2ccc(O)cc12 [Compound 11, 6-Hydroxy-4H-chromen-4-one]	28 ± 1.9 µM	2.4	–	much better trypanocidal activity than the control drug BNZ	11.8 ± 0.3 µM	EC50 [2, 6]: 10 to 50 µM
COCOc1cc(O)c(C(=O)C=Cc2ccc(Cl)cc2)cc1CC=C(C)C [Compound 28, 3-(4-Chlorophenyl)-1-(2-hydroxy-4-(methoxymethoxy)-5-(3-methylbut-2-en-1-yl)phenyl)prop-2-en-1-one]	–	<2	> 0.3 µM	much better trypanocidal activity than the control drug BNZ	–	Cytotoxicity level (grade) [1]: high (high when LC50 values were lower than 50 μM)
O=c1ccoc2cc(O)ccc12 [Compound 10, 7-Hydroxy-4H-chromen-4-one]	23.4 ± 6.4 µM	<2	–	–	> 11.7 µM	–
